According to patent US9505727B2 (THE JOHNS HOPKINS UNIVERSITY, priority 2013, dated 2016):

Columns and labels:
hNav1.1 = target: T1, hNav1.1 (Homo sapiens, UniProt P35498); experiment: Two-electrode voltage-clamp of hNav1.1 (+β1) in Xenopus oocytes; assay type: cell-based; details: for Effect on hNav1.1 opening (G/Gmax), in words / Effect on hNav1.1 steady-state inactivation, in words / Effect on hNav1.1 persistent current / Depolarizing shift in hNav1.1 channel activation voltage: 100 μM; for Effect on hNav1.1 opening (G/Gmax), in words / Depolarizing shift in hNav1.1 channel activation voltage: versus DMSO; for Inactivation (V1/2) hNav1.1 / Activation (V1/2) hNav1.1: 100 μM drug; for Inactivation (V1/2) hNav1.1: steady-state inactivation; for Activation (V1/2) hNav1.1: ≤1% DMSO, oocytes incubated at least one hour; for Effect on hNav1.1 persistent current: end of 50 ms test pulse
T1 construct: host or cells: Xenopus oocytes (cRNA injection)

hNav1.2 = target: T2, hNav1.2 (Homo sapiens, UniProt Q99250); experiment: Two-electrode voltage-clamp of hNav1.2 (+β1) in Xenopus oocytes; assay type: cell-based; details: for Effect on hNav1.2 opening/gating, in words: 100 μM, versus DMSO; for Inactivation (V1/2) hNav1.2 / Activation (V1/2) hNav1.2: 100 μM drug; for Inactivation (V1/2) hNav1.2: steady-state inactivation; for Activation (V1/2) hNav1.2: ≤1% DMSO
T2 construct: host or cells: Xenopus oocytes (cRNA injection)

hNav1.3 = target: T3, hNav1.3 (Homo sapiens, UniProt Q9NY46); experiment: Two-electrode voltage-clamp of hNav1.3 (+β1) in Xenopus oocytes; assay type: cell-based; details: for Effect on hNav1.3 opening/gating, in words: 100 μM, versus DMSO; for Inactivation (V1/2) hNav1.3 / Activation (V1/2) hNav1.3: 100 μM drug; for Inactivation (V1/2) hNav1.3: steady-state inactivation; for Activation (V1/2) hNav1.3: ≤1% DMSO
T3 construct: host or cells: Xenopus oocytes (cRNA injection)

hNav1.6 = target: T4, hNav1.6 (Homo sapiens, UniProt Q9UQD0); experiment: Two-electrode voltage-clamp of hNav1.6 (+β1) in Xenopus oocytes; assay type: cell-based; details: for Inactivation (V1/2) hNav1.6 / Activation (V1/2) hNav1.6: 100 μM drug; for Inactivation (V1/2) hNav1.6: steady-state inactivation; for Activation (V1/2) hNav1.6: ≤1% DMSO
T4 construct: host or cells: Xenopus oocytes (cRNA injection)

α1/β2/γ2 GABAA receptor = target: T5, α1/β2/γ2 GABAA receptor (Homo sapiens, UniProt P14867+P18507+P47870); experiment: GABAA receptor activation in oocytes held at −70 mV; assay type: cell-based
T5 construct: expressed in transfected cells; host or cells: oocytes

[1] = tested on: picrotoxin-induced seizures in male Crl:CF1 mice; experiment: Picrotoxin seizure induction; assay type: in vivo, mouse; details: 75 mg/kg ip
Experimental: (§1) Animal husbandry and drug administration. Male Crl:CF1 mice (10-12 weeks old, Charles River) were housed under a 12 hour light-dark cycle with free access to food and water and all experiments were carried out between 10 am and 4 pm. 1-[phenyl-methyl]-1H-1,2,3-triazole-4-carboxamide-5-methyl (Compound B) (Sigma Aldrich) was suspended in a 40% solution of cyclodextrin (Sigma Aldrich) in sterile saline (0.9%) and 15 minutes prior to each seizure induction paradigm, 75 mg/kg of compound B was administered via intraperitoneal injection (ip) injection. Vehicle treated animals were similarly administrated 40% cyclodextrin and served as the controls for each experiment. The Emory University Institutional Animal Care and Use Committee approved all experimental protocols involving mice.
Seizure induction paradigms and analyses. Picrotoxin seizure induction—15 minutes prior to i.p. injection of picrotoxin (10 mg/kg, Sigma Aldrich), mice were administered vehicle or compound B (n=12 per group). Latencies to the first myoclonic jerk, forelimb clonus, and generalized tonic-clonic seizure were compared between compound B and vehicle-treated mice. The myoclonic jerk is characterized by a sudden jerk of the upper body whereas forelimb clonus involves rapid movement of the forelimbs for at least 5 s. Finally, the generalized tonic-clonic seizure involves the loss of postural control with rapid movement of the limbs for at least 5 s.
Statistical analysis. A Student's t-test was used to identify statistically significant differences in latencies between vehicle- and compound B-treated groups for each seizure phenotype following administration of flurothyl and picrotoxin. […] All data are presented as the mean±s.e.m.; p values <0.05 were considered significant.

[2] = tested on: flurothyl-induced seizures in male Crl:CF1 mice; experiment: Flurothyl seizure induction; assay type: in vivo, mouse; details: 75 mg/kg ip, p=0.6
Experimental: as §1
Flurothyl Seizure induction. Latencies to flurothyl-induced seizures were determined as previously described (Neurobiol Dis 49C, 211-220 (2012)). Briefly, flurothyl (2,2,2-trifluroethylether; Sigma Aldrich) was dispensed at a rate of 20 μl/minute into a Plexiglas chamber and latencies to three behavioral phenotypes were compared between vehicle-treated and compound B-treated (75 mg/kg) mice (n=12 per group): 1) the first myoclonic jerk, 2) a generalized tonic-clonic seizure, and 3) a generalized tonic-clonic seizure with tonic extension. […]

[3] = tested on: 6 Hz psychomotor seizures in male Crl:CF1 mice; experiment: 6 Hz psychomotor seizure induction; assay type: in vivo, mouse; details: 17 mA
Experimental: as §1
6 Hz psychomotor seizure induction. Topical anesthetic (0.5% tetracaine hydrochloride ophthalmic solution) was applied to the cornea 30 minutes before testing. Fifteen minutes prior to seizure induction, mice were administrated vehicle or compound B (n=12 per group). Each mouse was manually restrained and corneal stimulation (0.2 ms pulse, 6 Hz, 3 s) was performed at a current intensity of 17 mA (ECT Unit 57800; Ugo Basile, Comerio Italy). […]

Nav1.7 = Nav1.7 (Homo sapiens, UniProt Q15858); details: reported by other researchers; cited from earlier work
Chain of Nav1.7 (Q15858 whole entry): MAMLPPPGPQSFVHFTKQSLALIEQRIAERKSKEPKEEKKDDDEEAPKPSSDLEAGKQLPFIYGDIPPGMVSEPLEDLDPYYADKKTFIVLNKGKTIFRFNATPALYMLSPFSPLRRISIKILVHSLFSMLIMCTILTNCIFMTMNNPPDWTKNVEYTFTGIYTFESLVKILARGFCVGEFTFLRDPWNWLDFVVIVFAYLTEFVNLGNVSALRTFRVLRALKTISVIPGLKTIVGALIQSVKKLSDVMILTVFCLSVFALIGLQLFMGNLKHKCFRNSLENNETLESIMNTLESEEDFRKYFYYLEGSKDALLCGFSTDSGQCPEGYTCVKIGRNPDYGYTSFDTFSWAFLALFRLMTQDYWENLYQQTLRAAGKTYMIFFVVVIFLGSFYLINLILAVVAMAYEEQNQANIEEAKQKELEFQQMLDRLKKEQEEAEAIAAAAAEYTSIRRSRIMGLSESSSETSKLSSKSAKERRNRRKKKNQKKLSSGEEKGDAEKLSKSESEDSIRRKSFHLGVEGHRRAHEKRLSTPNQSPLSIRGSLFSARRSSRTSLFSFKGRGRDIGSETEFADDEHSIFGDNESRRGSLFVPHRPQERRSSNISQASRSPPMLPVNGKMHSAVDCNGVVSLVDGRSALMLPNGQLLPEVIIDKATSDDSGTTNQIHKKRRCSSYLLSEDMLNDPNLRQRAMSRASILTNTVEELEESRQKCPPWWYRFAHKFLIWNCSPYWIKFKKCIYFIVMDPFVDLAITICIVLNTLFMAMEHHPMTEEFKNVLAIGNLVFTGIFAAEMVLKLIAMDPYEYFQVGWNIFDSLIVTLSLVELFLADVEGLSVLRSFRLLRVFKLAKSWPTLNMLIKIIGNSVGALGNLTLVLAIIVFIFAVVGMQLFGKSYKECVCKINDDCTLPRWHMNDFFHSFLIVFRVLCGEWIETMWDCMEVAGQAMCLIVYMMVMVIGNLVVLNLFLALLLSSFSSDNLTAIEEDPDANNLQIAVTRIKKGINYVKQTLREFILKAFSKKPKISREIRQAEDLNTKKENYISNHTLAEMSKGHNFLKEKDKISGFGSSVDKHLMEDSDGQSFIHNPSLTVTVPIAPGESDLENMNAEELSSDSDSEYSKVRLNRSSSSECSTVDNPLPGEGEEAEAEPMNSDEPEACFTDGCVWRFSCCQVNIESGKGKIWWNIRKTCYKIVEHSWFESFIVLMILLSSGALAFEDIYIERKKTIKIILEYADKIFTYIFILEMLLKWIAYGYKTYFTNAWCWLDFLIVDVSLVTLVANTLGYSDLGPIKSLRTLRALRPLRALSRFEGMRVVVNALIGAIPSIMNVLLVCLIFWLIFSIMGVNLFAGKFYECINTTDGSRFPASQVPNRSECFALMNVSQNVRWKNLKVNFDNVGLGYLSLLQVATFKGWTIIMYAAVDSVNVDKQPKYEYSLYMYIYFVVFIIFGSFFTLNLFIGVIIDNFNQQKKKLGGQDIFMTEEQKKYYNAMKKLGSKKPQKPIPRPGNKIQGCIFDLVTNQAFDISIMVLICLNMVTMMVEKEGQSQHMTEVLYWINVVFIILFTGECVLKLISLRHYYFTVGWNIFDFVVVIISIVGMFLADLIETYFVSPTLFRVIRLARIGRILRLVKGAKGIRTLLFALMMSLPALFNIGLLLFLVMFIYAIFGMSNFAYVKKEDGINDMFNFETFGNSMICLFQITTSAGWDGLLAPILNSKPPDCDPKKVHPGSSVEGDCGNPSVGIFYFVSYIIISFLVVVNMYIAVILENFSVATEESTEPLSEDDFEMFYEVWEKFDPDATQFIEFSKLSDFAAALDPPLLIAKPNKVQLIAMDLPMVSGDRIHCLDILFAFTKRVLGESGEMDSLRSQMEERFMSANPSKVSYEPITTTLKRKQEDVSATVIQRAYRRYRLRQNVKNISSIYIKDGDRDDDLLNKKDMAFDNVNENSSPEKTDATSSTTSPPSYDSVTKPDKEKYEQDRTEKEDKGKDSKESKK

T5 sequence (P14867 28-456): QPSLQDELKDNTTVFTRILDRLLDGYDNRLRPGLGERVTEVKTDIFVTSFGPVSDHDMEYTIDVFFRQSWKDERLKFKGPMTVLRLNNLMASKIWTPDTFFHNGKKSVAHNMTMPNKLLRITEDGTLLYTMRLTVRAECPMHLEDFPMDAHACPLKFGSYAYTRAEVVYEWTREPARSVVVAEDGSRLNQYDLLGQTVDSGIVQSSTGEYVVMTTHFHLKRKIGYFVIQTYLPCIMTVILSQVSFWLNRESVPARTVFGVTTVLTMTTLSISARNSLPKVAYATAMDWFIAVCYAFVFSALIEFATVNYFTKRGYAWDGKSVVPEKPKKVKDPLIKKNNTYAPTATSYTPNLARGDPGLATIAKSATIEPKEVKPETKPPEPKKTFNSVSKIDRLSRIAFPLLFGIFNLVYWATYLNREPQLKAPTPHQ
T5 sequence (P47870 25-512 limits assumed): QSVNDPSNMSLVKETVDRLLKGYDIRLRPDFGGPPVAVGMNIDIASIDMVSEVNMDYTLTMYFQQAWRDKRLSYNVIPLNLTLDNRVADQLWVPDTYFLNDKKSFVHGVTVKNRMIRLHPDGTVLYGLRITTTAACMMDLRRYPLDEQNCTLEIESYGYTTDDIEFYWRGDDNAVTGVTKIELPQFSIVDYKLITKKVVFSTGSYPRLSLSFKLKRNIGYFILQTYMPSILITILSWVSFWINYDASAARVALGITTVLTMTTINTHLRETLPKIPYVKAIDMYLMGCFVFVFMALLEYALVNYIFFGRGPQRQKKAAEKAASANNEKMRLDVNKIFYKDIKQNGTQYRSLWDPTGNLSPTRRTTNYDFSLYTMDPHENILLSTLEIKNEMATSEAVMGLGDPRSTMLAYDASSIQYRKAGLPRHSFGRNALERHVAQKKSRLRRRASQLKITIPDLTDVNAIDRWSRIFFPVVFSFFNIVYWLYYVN
T5 sequence (P18507 40-475): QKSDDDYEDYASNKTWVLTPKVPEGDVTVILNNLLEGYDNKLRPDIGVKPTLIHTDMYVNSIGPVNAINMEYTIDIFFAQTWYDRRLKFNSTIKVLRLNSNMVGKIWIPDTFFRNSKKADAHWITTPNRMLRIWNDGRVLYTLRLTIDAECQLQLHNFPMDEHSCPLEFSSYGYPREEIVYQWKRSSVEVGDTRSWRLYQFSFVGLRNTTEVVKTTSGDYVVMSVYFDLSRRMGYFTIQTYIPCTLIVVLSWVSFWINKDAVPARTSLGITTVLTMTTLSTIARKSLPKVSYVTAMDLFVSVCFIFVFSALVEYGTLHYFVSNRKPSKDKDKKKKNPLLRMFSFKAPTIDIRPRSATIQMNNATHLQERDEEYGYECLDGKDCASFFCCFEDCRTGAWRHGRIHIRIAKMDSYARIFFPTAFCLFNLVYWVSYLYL

1-[(2,6-difluorophenyl)methyl]-1H-1,2,3-triazole-carboxymethyl-5-methyl [Compound L]
Effect on hNav1.1 opening (G/Gmax), in words (hNav1.1): only slightly inhibits
Effect on hNav1.2 opening/gating, in words (hNav1.2): not significant
Effect on hNav1.3 opening/gating, in words (hNav1.3): not significant
Effect on hNav1.6 steady-state inactivation, in words (hNav1.6; 100 μM): dramatically affect

NC(=O)c1nnn(Cc2cccc(F)c2)c1N [Compound A, 1-[(3-fluorophenyl)methyl]-1H-1,2,3-Triazole-4-carboxamide-5-amine]
Effect on hNav1.1 steady-state inactivation, in words (hNav1.1): neither of these compounds influences
Inactivation (V1/2) hNav1.1 (hNav1.1): −50.5 ± 1.2 mV^
Activation (V1/2) hNav1.1 (hNav1.1): −30.8 ± 1.0 mV**
Effect on hNav1.1 persistent current (hNav1.1): neither of these compounds influences
Effect on hNav1.1 opening (G/Gmax), in words (hNav1.1): clearly inhibit

Cc1c(C(N)=O)nnn1Cc1ccccc1 [Compound B, 1-[phenyl-methyl]-1H-1,2,3-Triazole-4-carboxamide-5-methyl]
Effect on hNav1.1 steady-state inactivation, in words (hNav1.1): neither of these compounds influences
Inactivation (V1/2) hNav1.1 (hNav1.1): −49.4 ± 0.3 mV^
Activation (V1/2) hNav1.1 (hNav1.1): −27.4 ± 1.0 mV**
Effect on hNav1.1 persistent current (hNav1.1): neither of these compounds influences
Effect on hNav1.1 persistent current (hNav1.1; listed as compound B): do not affect
Depolarizing shift in hNav1.1 channel activation voltage (hNav1.1): ~+11 mV
Effect on hNav1.1 opening (G/Gmax), in words (hNav1.1): clearly inhibit
Inactivation (V1/2) hNav1.2 (hNav1.2): −53.6 ± 1.2 mV
Activation (V1/2) hNav1.2 (hNav1.2): −23.6 ± 1.1 mV
Effect on hNav1.2 opening/gating, in words (hNav1.2): unaltered
Inactivation (V1/2) hNav1.3 (hNav1.3): −50.0 ± 0.8 mV
Activation (V1/2) hNav1.3 (hNav1.3): −25.8 ± 1.4 mV
Effect on hNav1.3 opening/gating, in words (hNav1.3): unaltered
Inactivation (V1/2) hNav1.6 (hNav1.6): −62.6 ± 0.7 mV
Activation (V1/2) hNav1.6 (hNav1.6): −23.8 ± 1.9 mV
Effect on hNav1.6 opening/gating, in words (hNav1.6; 100 μM, versus DMSO): unaltered
Activation of α1/β2/γ2 GABAA receptor (α1/β2/γ2 GABAA receptor; 100 μM): do not activate
Frequency of behavioral seizures versus vehicle, picrotoxin [1]: no difference
Average latency to forelimb clonus (FC) versus vehicle, picrotoxin ([1]; p=0.3): no statistically significant differences
Average latency to first myoclonic jerk (MJ) versus vehicle, picrotoxin ([1]; p=0.4): no statistically significant differences
Average latency to MJ versus vehicle, flurothyl [2]: comparable
Seizure severity (modified Racine scale) versus vehicle, 6 Hz ([3]; 75 mg/kg ip): dramatically less severe
Reduction in the number of mice exhibiting seizures, 6 Hz ([3]; versus vehicle): 63%

OCc1cn(Cc2cccc(F)c2)nn1 [Compound C, 1-[(3-fluorophenyl)methyl]-1H-1,2,3-Triazole-4-hydroxymethyl]
Inactivation (V1/2) hNav1.1 (hNav1.1): −49.2 ± 0.6 mV
Activation (V1/2) hNav1.1 (hNav1.1): −38.4 ± 1.3 mV
Effect on hNav1.1 opening (G/Gmax), in words (hNav1.1): no longer affects

NC(=O)c1nnn(Cc2ccc(F)cc2)c1N [Compound D, 1-[(4-fluorophenyl)methyl]-1H-1,2,3-Triazole-4-carboxamide-5-amine]
Inactivation (V1/2) hNav1.1 (hNav1.1): −49.8 ± 1.6 mV
Activation (V1/2) hNav1.1 (hNav1.1): −32.5 ± 2.3 mV
Effect on hNav1.1 opening (G/Gmax), in words (hNav1.1): not significant

CCc1c(C(N)=O)nnn1Cc1ccccc1 [Compound F, 1-(phenylmethyl)-1H-1,2,3-triazole-4-carboxamide-5-ethyl]
Effect on hNav1.1 steady-state inactivation, in words (hNav1.1): does not influence
Effect on hNav1.1 persistent current (hNav1.1): does not influence
Depolarizing shift in hNav1.1 channel activation voltage (hNav1.1): ~+12 mV
Effect on hNav1.1 opening (G/Gmax), in words (hNav1.1): inhibits hNav1.1 opening
Effect on hNav1.2 opening/gating, in words (hNav1.2): not significant
Effect on hNav1.3 opening/gating, in words (hNav1.3): not significant
Effect on hNav1.6 opening/gating, in words (hNav1.6; 100 μM, versus DMSO): not significant

COC(=O)c1nnn(Cc2c(F)cccc2F)c1C [Compound L, 1-[(2,6-difluorophenyl)methyl]-1H-1,2,3-triazole-carboxymethyl-5-methyl]
Effect on hNav1.1 opening (G/Gmax), in words (hNav1.1): much smaller compared to compound B
Shift of hNav1.6 steady-state inactivation / channel availability midpoint (hNav1.6; 100 μM, versus DMSO): ~−20 mV

NC(=O)c1cn(Cc2c(F)cccc2F)nn1 [Rufinamide, 1-[(2,6-difluorophenyl)methyl]-1H-1,2,3-Triazole-4-carboxamide, reference compound]
Effect on hNav1.1 steady-state inactivation, in words (hNav1.1): not influenced
Inactivation (V1/2) hNav1.1 (hNav1.1): −47.8 ± 1.6 mV
Activation (V1/2) hNav1.1 (hNav1.1): −30.6 ± 0.9 mV**
Effect on hNav1.1 persistent current (hNav1.1): do not affect
Effect on hNav1.1 opening (G/Gmax), in words (hNav1.1): dramatic depolarizing shift
Inactivation (V1/2) hNav1.2 (hNav1.2): −57.7 ± 0.5 mV
Activation (V1/2) hNav1.2 (hNav1.2): −29.5 ± 1.2 mV
Effect on hNav1.2 opening/gating, in words (hNav1.2): not inhibited
Inactivation (V1/2) hNav1.3 (hNav1.3): −52.6 ± 1.6 mV
Activation (V1/2) hNav1.3 (hNav1.3): −24.5 ± 2.4 mV
Effect on hNav1.3 opening/gating, in words (hNav1.3): not inhibited
Inactivation (V1/2) hNav1.6 (hNav1.6): −60.0 ± 0.7 mV**
Activation (V1/2) hNav1.6 (hNav1.6): −28.1 ± 0.8 mV
Effect on hNav1.6 opening/gating, in words (hNav1.6; 100 μM, versus DMSO): not inhibited
Activation of α1/β2/γ2 GABAA receptor (α1/β2/γ2 GABAA receptor; 100 μM): do not activate
Effect on Nav1.7 inactivated state (Nav1.7): stabilizes the inactivated state

NCc1cc(=O)[nH]o1 [muscimol]
Activation of α1/β2/γ2 GABAA receptor (α1/β2/γ2 GABAA receptor; 5 μM): activates
